In series [1] the test system is HCV replicon (NS3-NS5B regions of HCV type 1b) in Huh-7 luc/neo cells. Kind of series: HCV replicon assay (Huh-Luc cells, luciferase read-out). The format is cell-based. As to conditions: Hepatitis C virus. The text has this:
The compounds of Formula (I) were examined for activity against HCV in a cellular assay. […] The cellular assay was based on a bicistronic expression construct, as described by Lohmann et al. (1999) Science vol. 285 pp. 110-113 with modifications described by Krieger et al. (2001) Journal of Virology 75: 4614-4624, in a multi-target screening strategy.
In essence, the method was as follows. The assay utilized the stably transfected cell line Huh-7 luc/neo (hereafter referred to as Huh-Luc). This cell line harbors an RNA encoding a bicistronic expression construct comprising the wild type NS3-NS5B regions of HCV type 1b translated from an internal ribosome entry site (IRES) from encephalomyocarditis virus (EMCV), preceded by a reporter portion (FfL-luciferase), and a selectable marker portion (neo^R, neomycine phosphotransferase). The construct is bordered by 5′ and 3′ NTRs (non-translated regions) from HCV genotype 1b. Continued culture of the replicon cells in the presence of G418 (neo^R) is dependent on the replication of the HCV-RNA. The stably transfected replicon cells that express HCV-RNA, which replicates autonomously and to high levels, encoding inter alia luciferase, were used for screening the antiviral compounds.
The replicon cells were plated in 384-well plates in the presence of the test and control compounds which were added in various concentrations. Following an incubation of three days, HCV replication was measured by assaying luciferase activity (using standard luciferase assay substrates and reagents and a Perkin Elmer ViewLux™ ultraHTS microplate imager). Replicon cells in the control cultures have high luciferase expression in the absence of any inhibitor. The inhibitory activity of the compound on luciferase activity was monitored on the Huh-Luc cells, enabling a dose-response curve for each test compound. EC50 values were then calculated, which value represents the amount of the compound required to decrease the level of detected luciferase activity by 50%, or more specifically, the ability of the genetically linked HCV replicon RNA to replicate.
Background: In antiviral work, replicon cells carry a viral genome segment that copies itself.

For series [2], the system named is DENV-2/16681/eGFP. Kind of series: Antiviral activity against DENV-2/16681/eGFP in Huh-7 cells (eGFP read-out). The format is cell-based, dengue virus serotype 2. As to conditions: Dengue virus, DENV2, Huh-7, 72 h, read-out: DENV Huh-7 (EC50, μM). How it is done: (§1) The antiviral activity of the compounds against DENV-2/16681/eGFP was determined in a phenotypic antiviral assay with eGFP read-out, a measure for the amount of virus (TV-WI-03476 and TV-WI-05601). In parallel, cytotoxicity of the compounds was measured using ATPLite™ (PerkinElmer, Waltham, Mass.). The assay was performed in two different cell-lines (Vero and Huh-7) to exclude cell-specific activity of the compound.
(§2) DENV-2/16681/eGFP was produced by the transfection of the in vitro transcribed RNA of plasmid pFK-DVs-G2A (purchased from Prof. R. Bartenschlager, University of Heidelberg, Germany; FIG. 1) into Huh-7 cells (human hepatocarcinoma cells; kindly provided by Prof. R. Bartenschlager) (TV-WI-04247).
(§3) In brief, 2,500 Vero cells (African green monkey kidney cells; European Collection of Cell Cultures [ECACC], Porton Down, UK; catalogue number 84113001) or Huh-7 cells were seeded in 384-well plates containing 9-fold serially diluted test compound. After incubating 24 h at 37° C., Vero and Huh-7 cells were infected with DENV-2/16681/eGFP at a multiplicity of infection (MOI) of 1 and 5, respectively. After 3 days of incubation at 37° C., the viral replication was quantified by measuring eGFP expression in the cells with a laser microscope. The 50% effective concentration (EC50) was defined as the concentration inhibiting 50% of the eGFP expression of the compound-treated DENV-infected cells vs. the untreated DENV-infected cells (virus control), using the cell controls as baseline of eGFP signal (i.e., 0% signal). In the same way, the 90% effective concentration (EC90) was calculated.

Series [3] in a line: Cytotoxicity in Huh-7 cells (ATPlite cell viability). Type of series: cell-based. As to conditions: human, Table 1A, read-out: Tox Huh-7 (CC50). How it is done: as §1
(§4) In parallel, cytotoxic effects of the compounds (50% cytotoxic concentration [CC50] and 90% cytotoxic concentration [CC90]) were evaluated using an ATPlite cell viability luminescence assay (PerkinElmer). To this end, ATPlite was added to the wells according to the supplier's instructions once the eGFP read-out was performed, and the luminescence was measured; a measure directly relating to the number of viable cells. The CC50 was determined as the 50% inhibitory concentration for the luminescent signal in compound-treated DENV-infected cells compared to untreated DENV-infected cells (virus control), using a medium control as baseline of emitted light (i.e., 0% signal).
(In general: Cellular ATP, detected with luciferase, serves as a proxy for viable cell number.)

The subject of series [4] is DENV-2/16681/eGFP. Kind of series: Antiviral activity against DENV-2/16681/eGFP in Vero cells (eGFP read-out). The format is cell-based, dengue virus serotype 2. The following applies: Dengue virus, DENV2, Vero, 72 h, read-out: DENV Vero (EC50, μM). The protocol:
as §1, §2, §3

A short description of series [5]: Cytotoxicity in Vero cells (ATPlite cell viability). Type of series: cell-based. The following applies: African green monkey, Table 1A, read-out: Tox Vero (CC50). How it is done: as §1, §4
Series [6] concerns CHIKV strain S27. The series can be described thus: CHIKV CPE inhibition assay in Huh7 cells. The format is cell-based. The following applies: Chikungunya virus. The protocol: The antiviral activities of the nucleoside analogs against chikungunya virus (CHIKV) were tested using a cell-based high-throughput CPE (cytopathic effect) inhibition assay. In this assay, CHIKV strain S27 and Huh7 cells (a human hepatoma cell line) were employed. The test compounds were prepared in a 9-point fourfold serial dilutions and plated in a 384-well plate. Then, a density of 8000 cells/well and an MOI (Multiplicity of Infection) of 0.25 CHIKV were added to each well. The plates were incubated at 37° C./5% CO2 for 2 days. The antiviral activity of a test compound was measured by addition of an ATPLite™ 1-step kit (PerkinElmer), which measures the ATP levels in live cells protected from viral CPE by a test compound. The cytotoxicity of test compounds was measured in parallel in the absence of virus infection. The readout is luminescence.

[7] abbreviates: Huh-7, 72 h, Table 1A, Huh-Luc replicon cells, 3 days, read-out: HCV Huh-7 (EC50).
[8] abbreviates: Huh-7, Table 1C, comparison with spiro-oxetane derivatives, read-out: HCV, Huh-7 (EC50).
Where [9] appears, read: Huh-7, 48 h, Table 1A, Huh7 cells, MOI 0.25, 2 days, read-out: CHIKV Huh-7 (EC50).
[10] abbreviates: Huh-7, Table 1C, comparison with spiro-oxetane derivatives, read-out: CHIKV, Huh7 (EC50).
[11] abbreviates: Huh-7, 48 h, read-out: CHIKV Huh-7 (EC50, μM).

Where two headings read alike, the source gives them in different places.

Take `CC(C)OC(=O)[C@H](C)NP(=O)(OC[C@H]1O[C@@H](n2ccc(=O)[nH]c2=O)[C@@]2(CCS2)[C@@H]1O)Oc1ccccc1` (stereo partly drawn) [Compound 9, (2S)-isopropyl 2-(((((4R,5R,7R,8R)-5-(2,4-dioxo-3,4-dihydropyrimidin-1(2H)-yl)-8-hydroxy-6-oxa-1-thiaspiro[3.4]octan-7-yl)methoxy)(phenoxy)phosphoryl)amino)propanoate]: the EC50 in series [1] (setting [7]) was 1 µM; in series [1] (setting [8]), 1 µM; in series [2], 9 µM; in series [4], more than 100 µM; in series [6] (setting [9]), 18 µM; in series [6] (setting [10]), 18 µM. For the same molecule, the CC50 in series [3] and in series [5] was more than 100 µM throughout.
On to `CC(C)OC(=O)[C@H](C)NP(=O)(OC[C@H]1O[C@@H](n2ccc(N)nc2=O)[C@@]2(CCS2)[C@@H]1O)Oc1ccccc1` (stereo partly drawn) [Compound 17, (2S)-isopropyl 2-(((((4R,5R,7R,8R)-5-(4-amino-2-oxopyrimidin-1(2H)-yl)-8-hydroxy-6-oxa-1-thiaspiro[3.4]octan-7-yl)methoxy)(phenoxy)phosphoryl)amino)propanoate], for which the EC50 is more than 50 µM in series [1] (setting [7]), 19 µM in series [2], more than 50 µM in series [4] and more than 50 µM in series [6] (setting [9]). Besides, the CC50 in series [3] and in series [5] was more than 50 µM each time.
As to `CCCCOC(=O)[C@H](C)NP(=O)(OC[C@@]1(F)O[C@@H](n2ccc(=O)[nH]c2=O)[C@@]2(CCS2)[C@@H]1O)Oc1ccccc1` (stereo partly drawn) [Compound 25, (2S)-butyl 2-(((((4R,5R,7S,8R)-5-(2,4-dioxo-3,4-dihydropyrimidin-1(2H)-yl)-7-fluoro-8-hydroxy-6-oxa-1-thiaspiro[3.4]octan-7-yl)methoxy)(phenoxy)phosphoryl)amino)propanoate], the EC50 in series [1] (setting [7]) was determined as 2 µM; in series [2], 4 µM; in series [4] it was 35 µM; in series [6] (setting [9]) it was 3 µM. The CC50 in series [3] and in series [5] was more than 100 µM each time.
For the molecule `O=c1ccn([C@@H]2O[C@H](CO)[C@@H](O)[C@]23CCS3)c(=O)[nH]1` [Compound 7, 1-((4R,5R,7R,8R)-8-hydroxy-7-(hydroxymethyl)-6-oxa-1-thiaspiro[3.4]octan-5-yl)pyrimidine-2,4(1H,3H)-dione], the EC50 in series [1] (setting [7]) and in series [4] was more than 100 µM throughout. For the same molecule, the CC50 in series [3] and in series [5] was more than 100 µM each time.
Consider `CC(C)OC(=O)[C@H](C)NP(=O)(OC[C@H]1O[C@@H](n2ccc(=O)[nH]c2=O)[C@@]2(CCO2)[C@@H]1O)Oc1ccccc1` (mixture of isomers) [reference compound], for which the concentration giving a half-maximal response (EC50) was 21 µM in series [1] (setting [8]) and more than 100 µM in series [6] (setting [10]).
Consider `CC(C)OP(=O)(OC[C@@]1(F)O[C@@H](n2ccc(=O)[nH]c2=O)[C@@]2(CCS2)[C@@H]1O)Oc1ccc(Cl)cc1` (stereo partly drawn) [Compound 37, 4-chlorophenyl (((4R,5R,7S,8R)-5-(2,4-dioxo-3,4-dihydropyrimidin-1(2H)-yl)-7-fluoro-8-hydroxy-6-oxa-1-thiaspiro[3.4]octan-7-yl)methyl) isopropyl phosphate], for which the EC50 in series [1] (Huh-7, 72 h, read-out: HCV Huh-7 (EC50, μM)) was more than 100 µM; in series [2] it was more than 100 µM; in series [4] it was more than 100 µM; in series [6] (setting [11]), more than 100 µM. Moreover, the CC50 in series [3] and in series [5] was more than 100 µM in each case.
`O=c1ccn([C@@H]2O[C@]3(F)CO[P@](=O)(NC4CCC4)O[C@H]3[C@]23CCS3)c(=O)[nH]1` [Compound 40a, 1-((2R,2′R,4aS,6R,7aR)-2-(cyclobutylamino)-4a-fluoro-2-oxidotetrahydrospiro[furo[3,2-d][1,3,2]dioxaphosphinine-7,2′-thietan]-6-yl)pyrimidine-2,4(1H,3H)-dione]: the EC50 in series [1] (setting [7]), in series [2], in series [4] and in series [6] (setting [9]) was more than 100 µM in each case. Further, the CC50 in series [3] and in series [5] was more than 100 µM each time.
With `[N-]=[N+]=N[C@]1(CO)O[C@@H](n2ccc(=O)[nH]c2=O)[C@@]2(CCS2)[C@@H]1O` [Compound 44, 1-[(4R,5R,6R,8R)-6-azido-5-hydroxy-6-(hydroxymethyl)-7-oxa-1-thiaspiro[3.4]octan-8-yl]pyrimidine-2,4-dione], the EC50 in series [1] (setting [7]), in series [2], in series [4] and in series [6] (setting [11]) was more than 100 µM throughout. For the same molecule, the CC50 in series [3] and in series [5] was more than 100 µM in each case.
Consider `CC(C)OC(=O)[C@H](C)NP(=O)(OC[C@@]1(F)O[C@@H](n2ccc(=O)[nH]c2=O)[C@@]2(CCO2)[C@@H]1O)Oc1ccccc1` (mixture of isomers) [reference compound], for which the EC50 in series [1] (setting [8]) and in series [6] (setting [10]) was more than 100 µM in each case.
On to `CC(C)OC(=O)[C@H](C)NP(=O)(OC[C@@]1(F)O[C@@H](n2ccc(N)nc2=O)[C@@]2(CCS2)[C@@H]1O)Oc1ccccc1` (stereo partly drawn) [Compound 31, (2S)-isopropyl 2-(((((4R,5R,7S,8R)-5-(4-amino-2-oxopyrimidin-1(2H)-yl)-7-fluoro-8-hydroxy-6-oxa-1-thiaspiro[3.4]octan-7-yl)methoxy)(phenoxy)phosphoryl)amino)propanoate], for which the EC50 in series [1] (setting [7]) is 11 µM; in series [2], 36 µM; in series [4] it was more than 100 µM; in series [6] (setting [9]) it was more than 100 µM. Moreover, the CC50 in series [3] and in series [5] was more than 100 µM in each case.

For orientation: EC50 means the midpoint of the concentration-response curve. By CC50 is commonly meant the concentration that lowers cell viability or growth by half.

The values are drawn from patent US11267844B2, “Spirothietane nucleosides” (Janssen Pharmaceutica NV, priority 2017, dated 2022).
